In patent publication US7129267B2, “Methods for SHP1 mediated neuroprotection” (Janssen Pharmaceutica N.V., priority 2002, dated 2006):

biological target: SHP1 (Homo sapiens, UniProt P29350); assay: SHP1 tyrosine phosphatase activity inhibition assay; format: biochemical; settings: under the assay conditions
Text: The invention further provides a method of identifying an inhibitor of a SHP1 tyrosine phosphatase activity, comprising the steps of: • 1) contacting a test compound with a SHP1 protein or an active fragment thereof; and • 2) determining the ability of the test compound to decrease the tyrosine phosphatase activity of SHP1.
A variety of assay methods can be used to determine the effect of the compound on the tyrosine phosphatase activity of SHP1. Some of the assay methods are disclosed in WO99/54450. For example, SHP1 phosphotase activity can be measured as a function of the ability of SHP1 to dephosphorylate a substrate, such as a phosphorylated JAK2. In particular, a phosphorylated peptide derived from JAK2. The dephosphorylation reaction can be monitored using a malachite green assay (Lanzetta et al., Anal Biochem. 1979, 100:95–7), which measures the release of inorganic phosphate from the substrate. Alternatively, SHP1 phosphotase activity can be measured in vivo by changes in cellular physiology affected by the SHP1 phosphotase activity, such as the inactivation of the EPOR signal transduction pathway.
Compounds of Formula I, II, and III were identified as inhibitors for SHP1 tyrosine phosphatase activity using methods of the invention.

Sequence of SHP1 (P29350 whole entry, the tested form may be a part): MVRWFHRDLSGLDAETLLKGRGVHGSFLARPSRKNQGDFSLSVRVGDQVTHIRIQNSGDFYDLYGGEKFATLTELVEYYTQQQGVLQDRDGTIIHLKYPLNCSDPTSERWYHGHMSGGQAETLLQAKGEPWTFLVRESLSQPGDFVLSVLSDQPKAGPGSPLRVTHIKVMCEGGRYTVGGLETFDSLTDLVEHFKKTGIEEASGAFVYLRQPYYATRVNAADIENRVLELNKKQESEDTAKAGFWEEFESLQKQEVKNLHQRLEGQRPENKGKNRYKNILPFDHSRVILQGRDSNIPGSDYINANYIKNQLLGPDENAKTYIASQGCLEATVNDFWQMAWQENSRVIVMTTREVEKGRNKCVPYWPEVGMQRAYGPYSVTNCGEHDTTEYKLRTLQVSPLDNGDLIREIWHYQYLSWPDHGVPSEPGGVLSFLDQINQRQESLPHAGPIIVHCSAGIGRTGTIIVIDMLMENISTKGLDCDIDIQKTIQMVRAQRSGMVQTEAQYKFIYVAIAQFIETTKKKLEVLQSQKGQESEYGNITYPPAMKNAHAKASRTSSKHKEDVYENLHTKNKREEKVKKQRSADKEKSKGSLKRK

Compared with `O=C1CSC(=S)N1CNc1ccc(NCN2C(=O)CSC2=S)cc1`, `CC(=O)Nc1ccc(/C=C2/SC(=S)NC2=O)cc1` is 6-fold higher in IC50: 4.3 µM for the first, 25.7 µM for the second. The first is the more potent here.

`O=C(O)/C=C/c1ccc(/C=C/C(=O)O)s1` was tested, and the IC50 was 22 µM.
